Here are results for one substance from patent publication US5219848A, “Cephem compounds” (ICI Pharma, priority 1989, dated 1993).

Format in all cases: cell-based
Common to all, as to design: unit not given here
Settings in all cases: Isosensitest agar, 10^4 CFU/spot

Assay [1] relates to St. aureus 147N (A8601052). As to the kind of experiment: MIC by agar-dilution, St. aureus 147N (A8601052). The source says:
(§1) The following results were obtained for representative compounds on a standard in vitro test system using Isosensitest agar medium. The antibacterial activity is described in terms of the minimum inhibitory concentration (MlC) determined by the agar-dilution technique with an inoculum size of 10^4 CFU/spot.

Assay [2] deals with Strep. pyogenes (A681018). As to the kind of experiment: MIC by agar-dilution, Strep. pyogenes (A681018).
Description: as §1

Assay [3] deals with E. coli DCO (A8341098). Nature of the assay: MIC by agar-dilution, E. coli DCO (A8341098).
Description: as §1

Assay [4] concerns Ent. cloacae P99 (A8401054). As to the kind of experiment: MIC by agar-dilution, Ent. cloacae P99 (A8401054).
Description: as §1

Assay [5] concerns S. dublin (A8369001). Nature of the assay: MIC by agar-dilution, S. dublin (A8369001).
Description: as §1

Assay [6] has as its system Pr. morganii (A8433001). Nature of the assay: MIC by agar-dilution, Pr. morganii (A8433001).
Description: as §1

Assay [7] has as its system Kleb. oxytoca (A8395055). As to the kind of experiment: MIC by agar-dilution, Kleb. oxytoca (A8395055).
Description: as §1

In assay [8] the test system is Serr. marcesens (A8421003). Nature of the assay: MIC by agar-dilution, Serr. marcesens (A8421003).
Description: as §1

The test system of assay [9] is P. aeruginosa PU21 (A8101028). Nature of the assay: MIC by agar-dilution, P. aeruginosa PU21 (A8101028).
Description: as §1

“7-[2-(2-Aminothiazol-4-yl)-2-((Z)-1-carboxy-1-methylethoxyimino)acetamido]- 3-(8-bromo-6,7-dihydroxy-3-oxo-tetrahydroisoquinolin-2-ylmethyl)ceph-3-em-4-carboxylic acid [Example 8]”: the MIC came out at 8 in assay [1]; 0.06 in assay [2]; 0.008 in [3]; 0.125 in [4]; 0.03 in assay [5]; 0.25 in [6]. Further, the MIC is on record as 0.015 in assay [7], 0.06 in assay [8] and 0.008 in [9].
